Tests used:
Format in all cases: in vivo
[1] = test system: chickweed (Stellaria media); experiment: Postemergence herbicidal activity, chickweed; settings: foliar spray, visual after 2 weeks, 0 no injury, 100 complete kill
Method: (§1) Seeds of the desired test plant species were planted in Grace-Sierra MetroMix® 306 planting mixture, which typically has a pH of 6.0 to 6.8 and an organic matter content of about 30 percent, in plastic pots with a surface area of 64 square centimeters. When required to ensure good germination and healthy plants, a fungicide treatment and/or other chemical or physical treatment was applied. The plants were grown for 7-21 days in a greenhouse with an approximately 15 hr photoperiod which was maintained at about 23-29° C. during the day and 22-28° C. during the night. Nutrients and water were added on a regular basis and supplemental lighting was provided with overhead metal halide 1000 Watt lamps as necessary. The plants were employed for testing when they reached the first or second true leaf stage. A weighed amount of each test compound, determined by the highest rate to be tested, was placed in a 20 mL glass vial and was dissolved in 4 mL of a 97:3 v/v (volume/volume) mixture of acetone and dimethyl sulfoxide to obtain concentrated stock solutions. […] The concentrated stock solutions obtained were diluted with an aqueous mixture containing acetone, water, iso-propyl alcohol, dimethyl sulfoxide, Atplus 411F crop oil concentrate, and Triton X-155 surfactant (methylenebisdiamyl phenoxy polyethoxy ethanol) in a 48.5:39:10:1.5:1.0:0.02 v/v ratio to obtain spray solutions of known concentration. The solutions containing the highest concentration to be tested were prepared by diluting 2 mL aliquots of the stock solution with 13 mL of the mixture and lower concentrations were prepared by dilution of appropriate smaller portions of the stock solution. Approximately 1.5 mL aliquots of each solution of known concentration were sprayed evenly onto each of the test plant pots using a DeVilbiss atomizer driven by compressed air pressure of 2 to 4 psi (140 to 280 kilopascals) to obtain thorough coverage of each plant. Control plants were sprayed in the same manner with the aqueous mixture. In this test an application rate of 1 ppm results in the application of approximately 1 g/ha. The treated plants and control plants were placed in a greenhouse as described above and watered by sub-irrigation to prevent wash-off of the test compounds. After 2 weeks the condition of the test plants as compared with that of the untreated plants was determined visually and scored on a scale of 0 to 100 percent where 0 corresponds to no injury and 100 corresponds to complete kill.

[2] = test system: cocklebur (Xanthium strumarium); experiment: Postemergence herbicidal activity, cocklebur; settings: foliar spray, visual after 2 weeks, 0 no injury, 100 complete kill
Method: as §1

[3] = test system: lambsquarters (Chenopodium album); experiment: Postemergence herbicidal activity, lambsquarters; settings: foliar spray, visual after 2 weeks, 0 no injury, 100 complete kill
Method: as §1

[4] = test system: morningglory (Ipomoea hederacea); experiment: Postemergence herbicidal activity, morningglory; settings: foliar spray, visual after 2 weeks, 0 no injury, 100 complete kill
Method: as §1

[5] = test system: pigweed (Amaranthus retroflexus); experiment: Postemergence herbicidal activity, pigweed; settings: foliar spray, visual after 2 weeks, 0 no injury, 100 complete kill
Method: as §1

[6] = test system: velvetleaf (Abutilion theophrasti); experiment: Postemergence herbicidal activity, velvetleaf; settings: foliar spray, visual after 2 weeks, 0 no injury, 100 complete kill
Method: as §1

viola (Viola tricolor) = experiment: Postemergence herbicidal activity, viola; settings: foliar spray, visual after 2 weeks, 0 no injury, 100 complete kill
Method: as §1

[7] = test system: wild buckwheat (Polygonum convolvulus); experiment: Postemergence herbicidal activity, wild buckwheat; settings: foliar spray, visual after 2 weeks, 0 no injury, 100 complete kill
Method: as §1

[8] = test system: blackgrass (Alopecurus myosuroides); experiment: Postemergence herbicidal activity, blackgrass; settings: foliar spray, visual after 2 weeks, 0 no injury, 100 complete kill
Method: as §1

[9] = test system: giant foxtail (Setaria faberi); experiment: Postemergence herbicidal activity, giant foxtail; settings: foliar spray, visual after 2 weeks, 0 no injury, 100 complete kill
Method: as §1

[10] = test system: Rox orange sorghum (Sorghum bicolor); experiment: Postemergence herbicidal activity, Rox orange sorghum; settings: foliar spray, visual after 2 weeks, 0 no injury, 100 complete kill
Method: as §1

wild oats (Avena fatua) [11] = experiment: Postemergence herbicidal activity, wild oats; settings: foliar spray, visual after 2 weeks, 0 no injury, 100 complete kill
Method: as §1

[12] = test system: cocklebur (Xanthium strumarium); experiment: Preemergence herbicidal activity, cocklebur; settings: 35 g/Ha, soil spray, visual after 3 weeks; 0 no injury, 100 complete kill or no germination
Method: (§2) The soil matrix was contained in plastic pots with a surface area of 161 square centimeters. When required to ensure good germination and healthy plants, a fungicide treatment and/or other chemical or physical treatment was applied. A weighed amount, determined by the highest rate to be tested, of each test compound was placed in a 20 mL glass vial and was dissolved in 8 mL of a 97:3 v/v (volume/volume) mixture of acetone and dimethyl sulfoxide to obtain concentrated stock solutions. […] The stock solutions obtained were diluted with a 99.9:0.1 mixture of water and Tween® 155 surfactant (ethoxylated sorbitan fatty acid ester) to obtain application solutions of known concentration. The solutions containing the highest concentration to be tested were prepared by diluting 4 mL aliquots of the stock solution with 8.5 mL of the mixture and lower concentrations were prepared by dilution of appropriate smaller portions of the stock solution. A 2.5 mL aliquot of each solution of known concentration was sprayed evenly onto the soil of each seeded pot using a Cornwall 5.0 mL glass syringe fitted with a TeeJet TN-3 hollow cone nozzle to obtain thorough coverage of the soil in each pot. Control pots were sprayed in the same manner with the aqueous mixture. A highest application rate of 4.48 kg/ha is achieved when 50 mg of test compound is employed. The treated pots and control pots were placed in a greenhouse with an approximately 15 hr photoperiod which was maintained at about 23-29° C. during the day and 22-28° C. during the night. Nutrients and water were added on a regular basis and supplemental lighting was provided with overhead metal halide 1000 Watt lamps as necessary. The water was added by top-irrigation. After 3 weeks the condition of the test plants that germinated and grew as compared with that of the untreated plants that germinated and grew was determined visually and scored on a scale of 0 to 100 percent where 0 corresponds to no injury and 100 corresponds to complete kill or no germination.

[13] = test system: lambsquarters (Chenopodium album); experiment: Preemergence herbicidal activity, lambsquarters; settings: 35 g/Ha, soil spray, visual after 3 weeks; 0 no injury, 100 complete kill or no germination
Method: as §2

[14] = test system: morningglory (Ipomoea hederacea); experiment: Preemergence herbicidal activity, morningglory; settings: 35 g/Ha, soil spray, visual after 3 weeks; 0 no injury, 100 complete kill or no germination
Method: as §2

[15] = test system: pigweed (Amaranthus retroflexus); experiment: Preemergence herbicidal activity, pigweed; settings: 35 g/Ha, soil spray, visual after 3 weeks; 0 no injury, 100 complete kill or no germination
Method: as §2

[16] = test system: velvetleaf (Abutilion theophrasti); experiment: Preemergence herbicidal activity, velvetleaf; settings: 35 g/Ha, soil spray, visual after 3 weeks; 0 no injury, 100 complete kill or no germination
Method: as §2

[17] = test system: wild poinsettia (Euphorbia heterophylla); experiment: Preemergence herbicidal activity, wild poinsettia; settings: 35 g/Ha, soil spray, visual after 3 weeks; 0 no injury, 100 complete kill or no germination
Method: as §2

[18] = test system: blackgrass (Alopecurus myosuroides); experiment: Preemergence herbicidal activity, blackgrass; settings: 35 g/Ha, soil spray, visual after 3 weeks; 0 no injury, 100 complete kill or no germination
Method: as §2

[19] = test system: barnyardgrass (Echinochloa crus-galli); experiment: Preemergence herbicidal activity, barnyardgrass; settings: 35 g/Ha, soil spray, visual after 3 weeks; 0 no injury, 100 complete kill or no germination
Method: as §2

[20] = test system: crabgrass (Digitaria sanguinalis); experiment: Preemergence herbicidal activity, crabgrass; settings: 35 g/Ha, soil spray, visual after 3 weeks; 0 no injury, 100 complete kill or no germination
Method: as §2

[21] = test system: giant foxtail (Setaria faberi); experiment: Preemergence herbicidal activity, giant foxtail; settings: 35 g/Ha, soil spray, visual after 3 weeks; 0 no injury, 100 complete kill or no germination
Method: as §2

[22] = test system: Rox orange sorghum (Sorghum bicolor); experiment: Preemergence herbicidal activity, Rox orange sorghum; settings: 35 g/Ha, soil spray, visual after 3 weeks; 0 no injury, 100 complete kill or no germination
Method: as §2

wild oats (Avena fatua) [23] = experiment: Preemergence herbicidal activity, wild oats; settings: 35 g/Ha, soil spray, visual after 3 weeks; 0 no injury, 100 complete kill or no germination
Method: as §2

SMILES	XANST preemergence injury score 0-100 [12]	CHEAL preemergence injury score 0-100 [13]	IPOHE preemergence injury score 0-100 [14]	AMARE preemergence injury score 0-100 [15]	ABUTH preemergence injury score 0-100 [16]	EPHHL preemergence injury score 0-100 [17]	ALOMY preemergence injury score 0-100 [18]	ECHCG preemergence injury score 0-100 [19]	DIGSA preemergence injury score 0-100 [20]	SETFA preemergence injury score 0-100 [21]	SORBI preemergence injury score 0-100 [22]	AVEFA preemergence injury score 0-100 (wild oats (Avena fatua) [23])	other results
COc1cc(Cl)sc1S(=O)(=O)Nc1nc2c(OC)cnc(OC)n2n1 [Compound 3]	70%	95%	60%	95%	50%	70%	80%	70%	95%	90%	90%	70%	STEME postemergence injury score 0-100 ([1]; 31 ppm): 70%; XANST postemergence injury score 0-100 ([2]; 31 ppm): 100%; CHEAL postemergence injury score 0-100 ([3]; 31 ppm): 95%; IPOHE postemergence injury score 0-100 ([4]; 31 ppm): 70%; AMARE postemergence injury score 0-100 ([5]; 31 ppm): 100%; ABUTH postemergence injury score 0-100 ([6]; 31 ppm): 70%; VIOTR postemergence injury score 0-100 (viola (Viola tricolor); 31 ppm): 80%; POLCO postemergence injury score 0-100 ([7]; 31 ppm): 85%; ALOMY postemergence injury score 0-100 ([8]; 31 ppm): 70%; SETFA postemergence injury score 0-100 ([9]; 31 ppm): 85%; SORBI postemergence injury score 0-100 ([10]; 31 ppm): 90%; AVEFA postemergence injury score 0-100 (wild oats (Avena fatua) [11]; 31 ppm): 80%
COc1cc(OC)n2nc(NS(=O)(=O)c3sc(Cl)cc3OC)nc2n1 [Compound 4]	0%	80%	50%	100%	70%	40%	95%	0%	90%	90%	80%	60%	STEME postemergence injury score 0-100 ([1]; 15.6 ppm): 60%; XANST postemergence injury score 0-100 ([2]; 15.6 ppm): 60%; CHEAL postemergence injury score 0-100 ([3]; 15.6 ppm): 90%; IPOHE postemergence injury score 0-100 ([4]; 15.6 ppm): 60%; AMARE postemergence injury score 0-100 ([5]; 15.6 ppm): 100%; ABUTH postemergence injury score 0-100 ([6]; 15.6 ppm): 70%; VIOTR postemergence injury score 0-100 (viola (Viola tricolor); 15.6 ppm): 60%; POLCO postemergence injury score 0-100 ([7]; 15.6 ppm): 90%; ALOMY postemergence injury score 0-100 ([8]; 15.6 ppm): 70%; SETFA postemergence injury score 0-100 ([9]; 15.6 ppm): 85%; SORBI postemergence injury score 0-100 ([10]; 15.6 ppm): 70%; AVEFA postemergence injury score 0-100 (wild oats (Avena fatua) [11]; 15.6 ppm): 60%
